The record followed here is US20240167005A1, “MODIFIED SHIGELLA APYRASE AND USES THEREOF” (APIRAYS BIOSCIENCES AB, priority 2021, published 2024).

In test [1] the target is Shigella flexneri apyrase (ApiOne, SEQ ID NO: 1) Double mutant L66V/G63R (Shigella flexneri, UniProt Q59909, G63R/L66V). The following applies: read-out: Affinity (Km), ATP, 50 mM Tris-HCl pH 7.5, 37° C., 20 min, 500 ng enzyme.
Description: To this 200 μL of Ammonium Molybdate Ferrous Ammonium Sulphate (AMFAS) reagent was added. AMFAS reagent was prepared by mixing equal volumes of reagent A and reagent B, where reagent A comprises of 5% (w/v) ammonium molybdate in 5 N H2SO4 and reagent B contains 1% (w/v) ferrous ammonium sulphate in double-distilled water. The amount of inorganic phosphate formed (product of ATP/ADP hydrolysis) is colorimetrically measured at 630 nm using multi-mode spectrophotometer (Biotek instruments).
The kinetic curves were plotted and the Michaelis Menten constant (Km) was calculated using GraphPad Prism 5.0 software.
Test [2] concerns the target Shigella flexneri apyrase, mutant apyrase of Example 1, SEQ ID NO: 3 (S50N, F54V, G63R, L66V, N70Q, E77V, A791, D90T, S97T, L108M, Q113N, V120R, K124R, Y127Q, P (Shigella flexneri, UniProt Q59909, A167G/A79I/D90T/E243D/E77V/F162N/F223W/F234Y/F53V/G185A/G206R/G63R/I151L/K124R/K178R/L108M/L182F/L227S/L66V/N174Q/N219K/N70Q/P143R/Q113N/S50N/S97T/T239Q/V120R/V213A/W199Y/Y127Q)). Description: ATP hydrolysis, Km for ATP (Example 2), mutant. The following applies: mutant of Example 1; 50 mM Tris, pH 7.5, 37° C., 30 min, 700 ng enzyme. The test is classed as biochemical. The protocol:
In order to improve the activity of apyrase and its tolerance to high salt conditions, the inventors mutated the apyrase gene randomly using an error prone PCR method starting from the wild-type Shigella flexneri apyrase DNA sequence (SEQ ID NO: 4) as template. The method incorporates repeated copying of the template at high MgCl2 concentration (5 mM) with Taq polymerase. After every fourth cycle, one fifth of the reaction mixture was transferred to fresh PCR tube and the same process was repeated 22 times to obtain a product that will have randomly mutated nucleotides which can be identified by sequencing. The mutated gene was cloned in pET21a vector. The mutated DNA sequence obtained is presented as SEQ ID NO: 2, containing a total of 31 mutations leading to amino-acid changes (see SEQ ID NO:3 compared to the wild-type amino-acid sequence of SEQ ID NO: 1).
A titrated series of ATP solutions from 100 mM to 0.01 mM in 50 mM Tris, pH 7.5 were prepared and incubated with 700 ng of Apyrase (mutant prepared in Example 1 and wild-type Shigella flexneri apyrase as control) for 30 minutes at 37° C. (100 μL reaction). After the incubation, 100 μL AMFAS reagent was added and OD was taken at 630 nm using multimode reader (Biotek instruments). […] Specific activity at 10 mM ATP was determined as 6.3 μmoles/min/mg for the mutant apyrase.

The target of test [3] is T1, wild-type Shigella flexneri apyrase, SEQ ID NO: 1 (Shigella flexneri, UniProt Q59909).
T1 sequence (Q59909 26-246): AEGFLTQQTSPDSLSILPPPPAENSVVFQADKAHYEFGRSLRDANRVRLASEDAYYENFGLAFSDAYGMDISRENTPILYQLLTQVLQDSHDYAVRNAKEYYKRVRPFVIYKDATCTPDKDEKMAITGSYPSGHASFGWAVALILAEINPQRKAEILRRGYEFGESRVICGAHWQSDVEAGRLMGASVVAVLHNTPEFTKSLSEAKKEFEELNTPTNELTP
Description: ATP hydrolysis, Km for ATP (Example 2), wild type. Format: biochemical. The following applies: 50 mM Tris, pH 7.5, 37° C., 30 min, 700 ng enzyme. The protocol:
A titrated series of ATP solutions from 100 mM to 0.01 mM in 50 mM Tris, pH 7.5 were prepared and incubated with 700 ng of Apyrase (mutant prepared in Example 1 and wild-type Shigella flexneri apyrase as control) for 30 minutes at 37° C. (100 μL reaction). After the incubation, 100 μL AMFAS reagent was added and OD was taken at 630 nm using multimode reader (Biotek instruments). The color formation is proportional to the amount of ATP degraded (dephosphorylated to ADP or AMP). […] Specific activity at 10 mM ATP was determined as 6.3 μmoles/min/mg for the mutant apyrase.

The subject of test [4] is EIEC apyrase variant H116L. Description: Affinity of ATP to EIEC H116L (Table 6). Format: biochemical. An excerpt:
(§1) Respective colorimetric/fluorescence assays (mentioned above).

For test [5], the target named is Shigella flexneri apyrase (ApiOne, SEQ ID NO: 1) ApiTwo mutant L66V (Shigella flexneri, UniProt Q59909, L66V). Description: Affinity towards ATP, L66V. Format: biochemical. The following applies: 50 mM Tris-HCl pH 7.5, 37° C., 20 min, 500 ng enzyme.
Description: However, not all reactions successfully generated PCR products by agarose gel electrophoresis. The successful mutations were transformed into the expression host and proteins were expressed and purified to homogeneity by affinity chromatography.
Other substrates like 2-Glycerophosphate, Pyridoxal phosphate and phenyl phosphate were not hydrolysed by the mutants (Table 2 and FIG. 8A-B).
as §1

For orientation: Km means the concentration of substrate that gives half-maximal velocity. As for `Nc1ncnc2c1ncn2[C@@H]1O[C@H](COP(=O)(O)OP(=O)(O)OP(=O)(O)O)[C@@H](O)[C@H]1O` [ATP, Adenosine triphosphate], the Km was 20.7 µM in test [1]; 3600 µM in test [2]; 3300 µM in test [3]; 24 µM in test [4]; 18.5 µM in test [5].
